Measurements published in patent publication US8937038B2, “Composition containing peptide ligand that bonds with CXCR2 for treating infective and inflammatory diseases” (priority 2010, dated 2015).
Where no end group is shown, it is not given here. The star is where a group is joined. Palmitoyl = CCCCCCCCCCCCCCCC(=O)*

What was measured:
[1] = test system: PBMCs; experiment: Cytokine production by LPS-stimulated human PBMCs; format: cell-based; conditions: human PBMCs stimulated with LPS
Description: (§1) All kinds of protocols used in human beings were approved by the Institutional Review Board (IRB) at Dong-A University Hospital, and prior consents were obtained from all blood donors. Peripheral blood was collected from healthy donors, and human peripheral monocytes were separated using a Histopaque-1077 gradient. Neutrophils were separated through methods such as dextran precipitation of red blood cell, hypotonic lysis, and usage of lymphocyte isolation medium gradient, as known in the related art (Bae, Y. S. et al. Blood 97, 2854-2862(2001)). The separated human leukocytes were used immediately.
(§2) Next, an effect of the Ac-PGP on production of cytokines by human neutrophils and PBMCs was examined. […] A human CXCR2 chemokine agonist CXCL8 had few effects on production of TNF-α or IFN-γ stimulated with LPS (FIG. 28 to FIG. 31). Therefore, the Ac-PGP could improve both antiseptic activities in leukocytes derived from human beings and mice.

[2] = test system: human neutrophils; experiment: Cytokine production by LPS-stimulated human neutrophils; format: cell-based; conditions: human neutrophils stimulated with LPS
Description: as §1, §2

[3] = test system: cecal ligation and puncture (CLP)-septic mice; conditions: Kuliopulos et al.; cited from earlier work
[4] = test system: mouse neutrophils; experiment: H2O2 production in mouse neutrophils; format: cell-based; conditions: neutrophils pretreated with SB225002 30 minutes, then Ac-PGP 20 μM; FIG. 13
Protocol: Mouse neutrophils were separated from peripheral blood using a Histopaque-1077 solution (Sigma) (Bae Y S et al. 2001 Blood. 97: 2854-2862). The neutrophils separated from normal mice were stimulated with various concentrations of Ac-PGP for 10 minutes in the presence of cytochalasin B (5 μM). To identify the role of mCXCR2, the neutrophils were pre-incubated in various concentrations of SB225002 or a vehicle (DMSO) for 30 minutes in a stationary environment, and Ac-PGP (20 μM) was added, and incubated for 10 minutes. H2O2 in a supernatant was measured using a H2O2 measurement kit (Molecular probe).
A death rate by CLP is correlated with the number of bacterial colonies in a peritoneal fluid. Therefore, an effect of the Ac-PGP on removal of bacteria in a peritoneal fluid was examined. […] In vitro disinfection activity of the Ac-PGP was examined using neutrophils derived from a mouse. The mouse neutrophils were kept for an hour to phagocytize E. coli, and then stimulated with various concentrations of Ac-PGP (0.1 to 100 nM) for 20 minutes. […] A reactive oxygen species such as hydrogen peroxide was known as an important molecule participating in the disinfection activity. Therefore, an effect of Ac-PGP on production of hydrogen peroxide in the mouse neutrophils was examined. […]

[5] = test system: mouse splenocytes; experiment: Cytokine release from LPS-stimulated mouse splenocytes (ELISA); format: cell-based; conditions: LPS 100 ng/ml
Protocol: Mouse splenocytes were positioned on an RPMI 1640 medium including 5% FBS in a 96-well plate, and maintained at 37° C. in a 5% CO2 incubator. Thereafter, the splenocytes were stationarily incubated with LPS (100 ng/ml) for 24 hours in the presence or absence of Ac-PGP. After 30 minutes, LPS was added to the cells and collected a cell-free supernatant, and then the supernatant was centrifuged, and TNF-α, IL-6 and IFN-γ were measured using ELISA (BD Biosciences Pharmingen). In regards to the effect of IFN-γ on production of pro-inflammatory cytokines induced by LPS, 5×10^5 cells/ml of the mouse splenocytes were stimulated with 100 ng/ml of LPS in the presence or absence IFN-γ (R&D) (at various concentrations of 1, 10, 100 and 1,000 IU/ml). Amounts of TNF-α and IL-6 were measured 20 hours after stationary incubation using ELISA (BD Biosciences Pharmingen).
An effect of the Ac-PGP on a pro-inflammatory cytokine in a peritoneal fluid by CLP was determined from 4 to 72 hours after the CLP. The CLP induced a remarkable increase in levels of pro-inflammatory cytokines (TNF-α, IL-1β and IL-6) within 24 hours (FIGS. 14 to 16). Injection of the Ac-PGP in a sepsis model by the CLP induced a remarkable change in levels of the cytokines. […] To evaluate an effect of the Ac-PGP on production of the pro-inflammatory cytokines by the LPS, in vitro production of TNF-α and IL-6 by the mouse splenocytes was evaluated. Direct release of the TNF-α and IL-6 from the mouse splenocytes by the LPS was suppressed by in vitro treatment with the Ac-PGP (FIGS. 17 and 18).
Since it was confirmed that the administration of the Ac-PGP improved in vivo production of IFN-γ, a direct effect of the Ac-PGP on production of IFN-γ by splenocytes was examined. […] Also, an effect of IFN-γ on production of the pro-inflammatory cytokines was also examined.

CXCL8: human CXCR2 chemokine agonist
production of TNF-α ([1]; FIG. 29): few effects | production of IFN-γ ([1]; FIG. 31): few effects | production of TNF-α ([2]; FIG. 28): few effects | production of IFN-γ ([2]; FIG. 30): few effects

pal-RTLFKAHMGQKHR (Palmitoyl-RTLFKAHMGQKHR) [x1/2pal-3]
survival rate [3]: remarkable increase in survival rate

O=C(Nc1ccc([N+](=O)[O-])cc1O)Nc1ccccc1Br [SB225002, reference compound]
production of hydrogen peroxide by the Ac-PGP [4]: completely suppressed

B1: IFN-γ: type 1 cytokine (R&D) added to mouse splenocytes at 1 to 1,000 IU/ml (protein, UniProt P01580 23-155, looked up)
Interferon gamma: HGTVIESLESLNNYFNSSGIDVEEKSLFLDIWRNWQKDGDMKILQSQIISFYLRLFEVLKDNQAISNNISVIESHLITTFFSNSKAKKDAFMSIAKFEVNNPQVQRQAFNELIRVVHQLLPESSLRKRKRSRC
production of TNF-α by LPS ([5]; 5×10^5 cells/ml, IFN-γ 1, 10, 100 and 1,000 IU/ml, 20 hours, FIG. 25): relieved production | production of IL-6 by LPS ([5]; 5×10^5 cells/ml, IFN-γ 1, 10, 100 and 1,000 IU/ml, 20 hours, FIG. 26): relieved production

B2: KC: counterpart of mouse IL-8; mouse chemokine activating CXCR2 (protein, UniProt P12850 25-96, looked up)
Growth-regulated alpha protein: APIANELRCQCLQTMAGIHLKNIQSLKVLPSGPHCTQTEVIATLKNGREACLDPEAPLVQKIVQKMLKGVPK
release of TNF-α by LPS ([5]; 24 hours, FIG. 17): could not suppress | release of IL-6 by LPS ([5]; 24 hours, FIG. 18): could not suppress
